The results in this text go back to patent US9585878B2, “Treatment of BDNF-related disorders using laquinimod” (TEVA PHARMACEUTICAL INDUSTRIES, LTD., priority 2009, dated 2017).

SMILES strings stand for the structures. Entries after “also recorded” stand apart in the source; their conditions may differ.

For experiment [1], the system named is Balb/c mice. Nature of the experiment: Elevated Plus Maze (EPM). Format: in vivo. The text has this: The EPM model used in Examples 4.1 and 4.2 described below utilizes the natural fear of rodents to avoid open and elevated places. The apparatus consists of a plus-maze with two enclosed and two opposite open arms, elevated above the floor. […] This is one of the most widely used models to study effects of anxiety-like behavior. The maze consisted of two opposing open arms (40×10 cm) and two opposing closed arms (40×10 cm, with 40 cm walls) on a platform 50 cm above the ground. Mice were placed in the center square (10×10 cm) facing an open arm and videotaped during a 5 min exploration. Arm entries and duration were scored when all four paws enter the arm. Balb/c male mice were divided to 6 groups (5/group) and administered laquinimod (0.5, 1, 5 and 25 mg/kg p.o. in the form of laquinimod sodium solution via gavage), fluoxetine (positive control 10 mg/kg po) or vehicle daily for 3 days. On the third day, 90 min following administration, mice were exposed to the EPM for 5 minutes. Mice were placed in the center square (10×10 cm) facing an open arm and videotaped during a 5 minute exploration. Arm entries and duration was scored when all four paws enter the arm. Behavior was video recorded and analyzed using Ethovision software (Noldus Holland). Balb/c male mice were divided to 6 groups (5/group) and administered laquinimod (0.5, 1, 5 and 25 mg/kg p.o. in the form of laquinimod sodium solution via gavage), fluoxetine (positive control 10 mg/kg po) or vehicle daily for 3 days. On the third day, 90 min following administration, mice were exposed to the EPM for 5 min. Behavior was video recorded and open arms parameters were analyzed using Ethovision software (Noldus Holland).

Experiment [2] has as its system Balb/c mice. Put plainly: Open Field Test (motility and anxiety parameters). Type of experiment: in vivo. As to the method: The Open Field Test—Exploratory locomotor activity used in Examples 3.1 and 3.2 described below is one of the most popular in evaluation of animals' behavior. It tests both motility parameters and anxiety (Prut et al). An individual mouse is placed in a novel plexiglass arena of 50×50 cm the floor of which is divided into 3 digital zones: the outer peripheral zone 1, the medial zone 2 and the most central zone 3. The animal behavior in the open field is recorded by videotaping for 20 min and is analyzed subsequently digitally using Noldus software for animal behavior. The measurements include general motility (distance moved, velocity and strong mobility) and anxiety parameters (including frequency of visits to the central area, time spent in the inner field, and number of rearing events in the center). The more the animal stays and performs in the center, the less anxious it is.
Balb/c male mice were divided to 6 groups (5/group) and administered laquinimod (1, 5, 10 and 25 mg/kg p.o. in the form of laquinimod sodium solution via gavage), fluoxetine (positive control 10 mg/kg po) or vehicle daily for 3 days. On the third day, 90 min following administration, mice were exposed to the open field for 20 min. Behavior was video recorded and analyzed using Ethovision software (Noldus Holland).
Balb/c male mice were divided to 6 groups (5/group) and administered laquinimod (0.5, 1, 5 and 25 mg/kg p.o. in the form of laquinimod sodium solution via gavage), fluoxetine (positive control 10 mg/kg po) or vehicle daily for 3 days. On the third day, 90 min following administration, mice were exposed to the open field test for 20 minutes. Behavior was video recorded and analyzed using Ethovision software (Noldus Holland).

Experiment [3] concerns brain-derived neurotrophic factor (BDNF). Put plainly: Clinical trial in RRMS patients: BDNF concentration in serum by sandwich ELISA. Type of experiment: in vivo, human. To be noted: for Mean BDNF concentration in serum: RRMS patients. Here is the method:
A study was initiated in relapsing remitting multiple sclerosis (RRMS) patients using laquinimod, 0.6 mg daily, in the form of the sodium salt, in an oral, once-daily tablet formulation. The study was a multinational, multicenter, randomized, double-blind, parallel-group, placebo controlled study assessing the efficacy, tolerability and safety of two doses of laquinimod in subjects with RRMS. Eligible subjects were randomized into the following three groups:
1. 0.6 mg of laquinimod per os (p.o.) once daily;
2. 0.3 mg of laquinimod per os (p.o.) once daily; and
3. Matching placebo, per os (p.o.) once daily. Subjects must meet the following inclusion criteria to be included in the study:
• 1. a confirmed MS diagnosis as defined by the McDonald criteria; • 2. a RRMS disease course; • 3. at least one documented relapse n the 12 months prior to screening; • 4. at least one Gadolinium-enhanced lesion on their screening MRI scan; • 5. ambulatory with a Kurtzke EDSS score of 1.0-5.0 (Converted); • 6. between 18-50 years of age inclusive; • 7. relapse-free and off corticosteroids or ACTH for at least 30 days prior to the MRI scan at screening; • 8. relapse-free and off corticosteroids between screening and randomization; • 9. women of child-bearing potential practiced a reliable method of birth control; • 10. willing and able to comply with the protocol requirements for the duration of the study; and • 11. able to give signed, written and informed consent prior to entering the study. Subjects meeting any one of the following exclusion criteria were excluded from the study: • 1. suffered from any form of progressive MS; • 2. use of immunosuppressive or cytotoxic treatments within 6 months prior to the screening visit (including azathioprine, cyclophosphamide and methotrexate); • 3. use of experimental drugs, and/or participation in drug clinical studies within the 6 months prior to screening; • 4. previous treatment with immunomodulators (including IFN-β1a and 1b, glatiramer acetate, laquinimod and IVIG) within the 2 months prior to screening; • 5. use of potent inhibitors of CYP3A4, for example, oral ketoconazole and erythromycin within 2 weeks prior to baseline visit; • 6. previous use of amiodarone; • 7. use of fluoxetine one month prior to baseline visit; • 8. use of substrates of CYP1A2 such as theophylline and warfarin within 2 weeks prior to screening; • 9. previous treatment with cladribine within the last 2 years prior to screening visit; • 10. subjects for whom potential immunosuppression would be contraindicated, for example, Hepatitis B/C or HIV. • 11. previous total body irradiation or total lymphoid irradiation; • 12. chronic corticosteroid treatment (30 or more consecutive days) within the 2 months prior to screening; • 13. pregnancy or breastfeeding; • 14. subjects with a clinically significant or unstable medical or surgical condition that would preclude safe and complete study participation as determined by medical history, physical exams, ECG, abnormal laboratory tests and chest X-ray. • 15. inability to give informed consent, or to complete the study, or if the subject is considered by the investigator to be, for any reason, an unsuitable candidate for the study; • 16. a known history of sensitivity to Gd; or • 17. inability to successfully undergo MRI scanning.
The study duration was 40 weeks and consisted of 2 periods: 4 weeks of screening period (week −4 [ screening] to week 0 [ baseline]) and 36 weeks of double blind treatment (week 0 [ baseline] to week 36 [ termination]).
Subjects were evaluated at study sites at weeks −4, 0, 4, 8, 12, 16, 20, 24, 28, 32 and 36. Samples for inflammatory markers were collected at all visits between 0 and 36 weeks.
BDNF concentration in serum was measured in patients in the placebo group (102 patients were in the group) and in the 0.6 mg laquinimod group (106 patients were in the group) at week 0 (V0), week 12 (v3) and week 36 (V9). […]

In experiment [4] the test system is Balb/c mice. Put plainly: Forced Swim Test (FST). Format: in vivo.

Regarding `CCN(C(=O)c1c(O)c2c(Cl)cccc2n(C)c1=O)c1ccccc1` [Laquinimod, N-ethyl-N-phenyl-1,2-dihydro-4-hydroxy-5-chloro-1-methyl-2-oxoquinoline-3-carboxamide], the “Anxiolytic activity in EPM” value was “anxiolytic activity in a dose dependent manner” in the experiment on Balb/c mice [1] (Example 4.1, 0.5, 1, 5 and 25 mg/kg p.o. daily for 3 days); “anxiolytic activity in a dose dependent manner” in the experiment with Balb/c mice [1] (Example 4.2, 0.5, 1, 5 and 25 mg/kg p.o. daily for 3 days). Moreover, in the experiment with Balb/c mice [1] (Example 4.1, 5 and 25 mg/kg/d x3d p.o., 5 min), the “Anxiolytic effect in EPM (activity on the open arm)” value is “significant anxiolytic effect”. Besides, the “Dose of maximal effect in EPM” value with Balb/c mice [1] (Example 4.1, p.o.) was 25 mg/kg; in the experiment with Balb/c mice [1] (Example 4.2, p.o.), 5 to 25 mg/kg. Further, the “Anxiolytic effect in EPM (open arm parameters)” value with Balb/c mice [1] (Example 4.2, 5-25 mg/kg/d x3d p.o., 5 min) was “significant anxiolytic effect”. For the same compound, the “Most potent dose, anxiety parameters (zones 2 and 3) in open field” value in the experiment with Balb/c mice [2] (Example 3.1) is given as 1 mg/kg. Further, the “Motility parameters in open field” value is “did not modify significantly the motility parameters; also recorded: did not modify general mobility parameters” in the experiment with Balb/c mice [2] (Example 3.1, 1-25 mg/kg/d x3d p.o., 20 min) and “slight increase in motility” in the experiment on Balb/c mice [2] (Example 3.2, 0.5-5 mg/kg (0.5-25 mg/kg/d x3d p.o. tested)). In addition, the “Anxiety parameters (zone 2) in open field” value in the experiment with Balb/c mice [2] (Example 3.1, 1-25 mg/kg/d x3d p.o., frequency, time spent, distance moved, rearings) was “tendency toward anxiolytic effect”; with Balb/c mice [2] (Example 3.1, 1-25 mg/kg/d x3d p.o., frequency, time spent, distance moved, rearings, listed as laquinimod), “tended to perform more in the center”. Further, the “Anxiety parameters (zones 2 and 3) in open field” value in the experiment on Balb/c mice [2] (Example 3.1, 1-25 mg/kg/d x3d p.o., time spent, distance moved, rearings) is reported as “tendency toward anxiolytic effect”; in the experiment on Balb/c mice [2] (Example 3.1, 1-25 mg/kg/d x3d p.o., time spent, distance moved, rearings, listed as laquinimod), “tended to perform more in the center”. Besides, the “Most potent dose, anxiety parameters in open field” value in the experiment with Balb/c mice [2] (Example 3.2) came to 5 mg/kg. For the same compound, the “Anxiety parameters (zones 2+3) in open field” value with Balb/c mice [2] (Example 3.2, 0.5-5 mg/kg p.o. daily for 3 days, frequency, time spent, rearings) was “performed significantly more in the center; also recorded: significant anxiolytic effect”. In experiment [3] (0.6 mg/day, V9 (week 36)), the “Difference in BDNF versus placebo group” value was “statistically significant”. Moreover, in experiment [3] (0.6 mg/day, starting from V3 (week 12), Confidence Level of 95%), the “Elevation of BDNF versus placebo group” value is on record as “statistically significant elevation of BDNF”. The “Mean BDNF concentration in serum” value in experiment [3] (0.6 mg laquinimod p.o. once daily group, baseline week 0 (V0)) came to 13892.7 pg/mL; in experiment [3] (0.6 mg laquinimod p.o. once daily, week 12 (V3)), 15519.6 pg/mL; in experiment [3] (0.6 mg laquinimod p.o. once daily, week 36 (V9)) it was 15335.8 pg/mL. The “Difference in mean BDNF, Laquinimod 0.6 mg-Placebo (t Test, unequal variances)” value is -218.0 pg/mL in experiment [3] (baseline week 0 (V0)), 2445.70 pg/mL in experiment [3] (week 12 (V3)) and 2552.21 pg/mL in experiment [3] (week 36 (V9)). Also, the “Antidepressant activity (increased mobility, reduced immobility) in FST” value in the experiment with Balb/c mice [4] (Example 2.1, 1 mg/kg p.o. daily for 3 days, 90 min after last dose) is given as “significant antidepressant activity”; in the experiment on Balb/c mice [4] (Example 2.1, higher doses (25 mg/kg) p.o. daily for 3 days), “trend to significance”; with Balb/c mice [4] (Example 2.2, 5 and 25 mg/kg p.o. daily for 3 days), “significant antidepressant activity”. The “Most active dose in FST” value with Balb/c mice [4] (Example 2.1, doses tested 1-25 mg/kg/d x3d p.o.) is reported as 1 mg/kg.
In the case of `CNCCC(Oc1ccc(C(F)(F)F)cc1)c1ccccc1` (stereo not drawn) [fluoxetine, reference compound], the “Anxiety parameters (zone 2) in open field” value in the experiment on Balb/c mice [2] (Example 3.1, 10 mg/kg p.o. daily for 3 days) is reported as “tended to perform more in the center”. Further, in the experiment with Balb/c mice [2] (Example 3.1, 10 mg/kg p.o. daily for 3 days, 20 min), the “Motility parameters in open field” value is recorded as “did not modify significantly the motility parameters”. Further, the “Anxiety parameters (zones 2+3) in open field” value with Balb/c mice [2] (Example 3.2, 10 mg/kg p.o. daily for 3 days) is “significant anxiolytic effect”; in the experiment on Balb/c mice [2] (Example 3.2, 10 mg/kg p.o. daily for 3 days, listed as Fluoxetine) it was “performed significantly more in the center”. Further, the “Antidepressant activity in FST” value was “did not show significant effect” with Balb/c mice [4] (Example 2.1, positive control 10 mg/kg p.o. daily for 3 days) and “trend to the same activity” in the experiment on Balb/c mice [4] (Example 2.2, positive control 10 mg/kg p.o. daily for 3 days).
